In US10351561B2, “Pyrazolo[3,4-b]pyridines and imidazo[1,5-b]pyridazines as PDE1 inhibitors” (H. Lundbeck A/S, priority 2016, dated 2019) one finds IC50 data, which are given here for 23 compounds.

Like-named read-outs stand apart in the source and are kept apart here.

Type in all cases: biochemical
Conditions in all cases: 15 nM tritium labelled cAMP, 1 hr at room temperature, SPA beads

The target of one assay is PDE1A (Homo sapiens, UniProt P54750). The experiment in a line: PDE1 inhibition assay (PDE1A), SPA with tritium labelled cAMP. As for the experimental part:
(§1) PDE1A, PDE1B and PDE1C assays were performed as follows: the assays were performed in 60 μL samples containing a fixed amount of the PDE1 enzyme (sufficient to convert 20-25% of the cyclic nucleotide substrate), a buffer (50 mM HEPES (4-(2-hydroxyethyl)-1-piperazineethanesulfonic acid) pH 7.6; 10 mM MgCl2; 0.02% Tween20), 0.1 mg/ml BSA (bovine serum albumin), 15 nM tritium labelled cAMP and varying amounts of inhibitors. Reactions were initiated by addition of the cyclic nucleotide substrate, and reactions were allowed to proceed for 1 hr at room temperature before being terminated through mixing with 20 μL (0.2 mg) yttrium silicate SPA beads (PerkinElmer). The beads were allowed to settle for 1 hr in the dark before the plates were counted in a Wallac 1450 Microbeta counter. The measured signals were converted to activity relative to an uninhibited control (100%) and IC50 values were calculated using XIFit (model 205, IDBS).

The target of the next assay is PDE1B (Homo sapiens, UniProt Q01064). The experiment in a line: PDE1 inhibition assay (PDE1B), SPA with tritium labelled cAMP. As for the experimental part:
Reactions were initiated by addition of the cyclic nucleotide substrate, and reactions were allowed to proceed for 1 hr at room temperature before being terminated through mixing with 20 μL (0.2 mg) yttrium silicate SPA beads (PerkinElmer).

A further assay deals with PDE1C (Homo sapiens, UniProt Q14123). In words: PDE1 inhibition assay (PDE1C), SPA with tritium labelled cAMP. As for the experimental part: as §1
Chain of PDE1C (Q14123 whole entry): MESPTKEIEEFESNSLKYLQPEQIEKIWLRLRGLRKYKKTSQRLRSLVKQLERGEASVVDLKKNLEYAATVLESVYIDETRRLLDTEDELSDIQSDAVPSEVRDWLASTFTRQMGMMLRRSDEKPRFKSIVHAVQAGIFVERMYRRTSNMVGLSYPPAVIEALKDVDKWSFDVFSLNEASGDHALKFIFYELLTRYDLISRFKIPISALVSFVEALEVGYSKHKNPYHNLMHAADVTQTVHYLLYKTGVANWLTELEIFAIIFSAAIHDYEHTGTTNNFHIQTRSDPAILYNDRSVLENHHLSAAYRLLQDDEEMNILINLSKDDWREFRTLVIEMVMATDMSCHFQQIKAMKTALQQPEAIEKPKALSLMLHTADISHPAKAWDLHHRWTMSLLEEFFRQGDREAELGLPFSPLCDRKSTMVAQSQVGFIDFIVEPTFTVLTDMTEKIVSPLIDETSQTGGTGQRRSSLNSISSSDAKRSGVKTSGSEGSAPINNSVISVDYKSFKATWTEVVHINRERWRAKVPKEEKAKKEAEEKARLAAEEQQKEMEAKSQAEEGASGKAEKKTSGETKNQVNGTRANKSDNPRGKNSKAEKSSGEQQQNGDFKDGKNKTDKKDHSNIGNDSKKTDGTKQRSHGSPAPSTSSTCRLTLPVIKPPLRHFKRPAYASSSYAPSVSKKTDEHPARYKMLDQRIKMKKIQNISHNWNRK

Chain of PDE1A (P54750 whole entry): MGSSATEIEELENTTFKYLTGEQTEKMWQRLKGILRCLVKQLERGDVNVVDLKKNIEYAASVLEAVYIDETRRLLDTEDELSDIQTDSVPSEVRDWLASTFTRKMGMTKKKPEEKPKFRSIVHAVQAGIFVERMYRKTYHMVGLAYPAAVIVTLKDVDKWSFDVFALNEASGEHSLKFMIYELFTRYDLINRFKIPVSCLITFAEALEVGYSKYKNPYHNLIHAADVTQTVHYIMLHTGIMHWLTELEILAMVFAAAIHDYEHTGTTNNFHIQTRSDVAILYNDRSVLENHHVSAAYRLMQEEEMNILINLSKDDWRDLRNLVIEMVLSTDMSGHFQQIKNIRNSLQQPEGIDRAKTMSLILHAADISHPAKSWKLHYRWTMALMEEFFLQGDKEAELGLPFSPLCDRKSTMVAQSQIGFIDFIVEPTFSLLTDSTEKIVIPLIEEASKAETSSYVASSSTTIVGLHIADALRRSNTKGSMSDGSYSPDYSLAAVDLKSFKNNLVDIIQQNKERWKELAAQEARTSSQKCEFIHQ
Chain of PDE1B (Q01064 whole entry): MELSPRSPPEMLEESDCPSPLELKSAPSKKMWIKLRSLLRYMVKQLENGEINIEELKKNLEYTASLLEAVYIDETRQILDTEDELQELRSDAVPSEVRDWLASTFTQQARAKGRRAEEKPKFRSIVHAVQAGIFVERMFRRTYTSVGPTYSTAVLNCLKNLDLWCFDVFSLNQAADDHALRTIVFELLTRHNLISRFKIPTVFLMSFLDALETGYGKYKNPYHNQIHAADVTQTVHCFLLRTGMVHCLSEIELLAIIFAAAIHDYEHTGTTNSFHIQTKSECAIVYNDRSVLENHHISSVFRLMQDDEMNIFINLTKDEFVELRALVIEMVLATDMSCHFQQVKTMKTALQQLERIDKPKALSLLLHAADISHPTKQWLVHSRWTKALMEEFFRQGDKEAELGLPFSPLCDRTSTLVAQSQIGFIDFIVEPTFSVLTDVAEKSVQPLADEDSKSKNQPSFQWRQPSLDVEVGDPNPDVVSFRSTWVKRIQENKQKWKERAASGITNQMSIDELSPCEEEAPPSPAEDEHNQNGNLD

On to `CCOc1ncccc1-c1cc(NCc2ncon2)c2c(C(C)C)nc(C)n2n1` [Example 43, 2-(2-ethoxy-3-pyridyl)-5-isopropyl-7-methyl-N-(1,2,4-oxadiazol-3-ylmethyl)imidazo[1,5-b]pyridazin-4-amine], for which the IC50 against PDE1A amounted to 40 nM; on PDE1B (read-out: PDE1B, IC50) it was 5.8 nM; on PDE1C it was 34 nM.
In the case of `Cc1csc(-c2cc(NCc3ncn(C)n3)c3c(C(C)C)nn(C)c3n2)n1` [Example 60, 3-isopropyl-1-methyl-6-(4-methylthiazol-2-yl)-N-[(1-methyl-1,2,4-triazol-3-yl)methyl]pyrazolo[3,4-b]pyridin-4-amine], the IC50 against PDE1A came out at 48 nM; at PDE1B (read-out: PDE1B, IC50) it was 8.8 nM; at PDE1C, 74 nM.
Taken in the same sequence, the figures for `CCOc1ncccc1-c1cc(NCc2ccc(OC)nc2)c2c(C(C)C)nn(C)c2n1` [Example 37, 6-(2-ethoxy-3-pyridyl)-3-isopropyl-N-[(6-methoxy-3-pyridyl)methyl]-1-methyl-pyrazolo[3,4-b]pyridin-4-amine] were 120 nM, 27 nM and 46 nM.
Regarding `COc1nccnc1-c1cc(NCc2ncn(C)n2)c2c(C(C)C)nn(C)c2n1` [Example 57, 3-isopropyl-6-(3-methoxypyrazin-2-yl)-1-methyl-N-((1-methyl-1H-1,2,4-triazol-3-yl)methyl)-1H-pyrazolo[3,4-b]pyridin-4-amine], the IC50 at PDE1A was 91 nM; at PDE1B (read-out: PDE1B, IC50) it was 22 nM; at PDE1C, 6.5 nM.
For the compound `CCCOc1ncccc1-c1cc(NCc2ncn(C)n2)c2c(C(C)C)nn(C)c2n1` [Example 33, 3-isopropyl-1-methyl-N-[(1-methyl-1,2,4-triazol-3-yl)methyl]-6-(2-propoxy-3-pyridyl)pyrazolo[3,4-b]pyridin-4-amine], the half-inhibitory concentration (IC50) on PDE1A was 3.4 nM; on PDE1B (read-out: PDE1B, IC50) it was 0.42 nM; against PDE1C, 5.2 nM.
For `CCOc1nnccc1-c1cc(NCc2cnn(C)c2)c2c(C(C)C)nc(C)n2n1` [Example 69, 2-(3-ethoxypyridazin-4-yl)-5-isopropyl-7-methyl-N-[(1-methylpyrazol-4-yl)methyl]imidazo[1,5-b]pyridazin-4-amine], the IC50 on PDE1A came to 24 nM; on PDE1B (read-out: PDE1B, IC50), 5.2 nM; on PDE1C it was 25 nM.
On to `CCOc1ncccc1-c1cc(NCc2ncn(C)n2)c2c(C(C)CC)nc(C)n2n1` (single isomer, unassigned; (-)) [Example 49, (−)-2-(2-ethoxy-3-pyridyl)-7-methyl-N-[(1-methyl-1,2,4-triazol-3-yl)methyl]-5-[1-methylpropyl]imidazo[1,5-b]pyridazin-4-amine], for which the concentration for half-maximal inhibition (IC50) against PDE1A turned out to be 14 nM; at PDE1B (read-out: PDE1B, IC50) it was 1.4 nM; at PDE1C, 7.6 nM.
Turning to `CC(C)c1nn(C)c2nc(-c3cccn(C)c3=O)cc(NCc3ncn(C)n3)c12` [Example 56, 3-(3-isopropyl-1-methyl-4-(((1-methyl-1H-1,2,4-triazol-3-yl)methyl)amino)-1H-pyrazolo[3,4-b]pyridin-6-yl)-1-methylpyridin-2(1H)-one], the IC50 against PDE1A stood at 290 nM; on PDE1B (read-out: PDE1B, IC50) it was 52 nM; against PDE1C, 480 nM.
For the compound `CCOc1ncccc1-c1cc(NCc2cnc(C)s2)c2c(C(C)C)nc(C)n2n1` [Example 17, 2-(2-ethoxy-3-pyridyl)-5-isopropyl-7-methyl-N-[(2-methylthiazol-5-yl)methyl]imidazo[1,5-b]pyridazin-4-amine], the IC50 on PDE1A amounted to 6.1 nM; at PDE1B (read-out: PDE1B, IC50), 1.5 nM; against PDE1C, 5.7 nM.
In the case of `CCOc1ncccc1-c1cc(NCc2nnc(C)o2)c2c(C(C)C)nc(C)n2n1` [Example 45, 2-(2-ethoxy-3-pyridyl)-5-isopropyl-7-methyl-N-[(5-methyl-1,3,4-oxadiazol-2-yl)methyl]imidazo[1,5-b]pyridazin-4-amine], the 50% inhibitory concentration (IC50) against PDE1A stood at 42 nM; at PDE1B (read-out: PDE1B, IC50), 7.8 nM; on PDE1C it was 37 nM.
`CCOc1ncccc1-c1cc(NCc2cn[nH]c2)c2c(C(C)C)nn(C)c2n1` [Example 30, 6-(2-ethoxy-3-pyridyl)-3-isopropyl-1-methyl-N-(1H-pyrazol-4-ylmethyl)pyrazolo[3,4-b]pyridin-4-amine]: the IC50 against PDE1A came out at 85 nM; at PDE1B (read-out: PDE1B, IC50), 16 nM; against PDE1C, 76 nM.
For the compound `CCOc1ncccc1-c1cc(NCc2ccnc(OC)c2)c2c(C(C)C)nc(C)n2n1` [Example 15, 2-(2-ethoxy-3-pyridyl)-5-isopropyl-N-[(2-methoxy-4-pyridyl)methyl]-7-methyl-imidazo[1,5-b]pyridazin-4-amine], the 50% inhibitory concentration (IC50) against PDE1A turned out to be 7.3 nM; at PDE1B (read-out: PDE1B, IC50), 1.7 nM; against PDE1C it was 9 nM.
On to `CCOc1ncccc1-c1cc(NCc2cn(C)cn2)c2c(C(C)C)nc(C)n2n1` [Example 8, 2-(2-ethoxy-3-pyridyl)-5-isopropyl-7-methyl-N-[(1-methylimidazol-4-yl)methyl]imidazo[1,5-b]pyridazin-4-amine], for which the half-maximal inhibitory concentration (IC50) turned out to be 2.4 nM at PDE1A; 0.22 nM on PDE1B (read-out: PDE1B, IC50); 2.6 nM on PDE1C.
Consider `CCOc1ncccc1-c1cc(NCc2ccnc(OC)c2)c2c(C(C)CC)nc(C)n2n1` (single isomer, unassigned; (-)) [Example 54, (−)-2-(2-ethoxy-3-pyridyl)-N-[(2-methoxy-4-pyridyl)methyl]-7-methyl-5-[1-methylpropyl]imidazo[1,5-b]pyridazin-4-amine], for which the IC50 against PDE1A worked out at 9.6 nM; at PDE1B (read-out: PDE1B, IC50), 1.8 nM; against PDE1C, 4.4 nM.
Turning to `CCOc1ncccc1-c1cc(NCc2coc(C)n2)c2c(C(C)C)nc(C)n2n1` [Example 9, 2-(2-ethoxy-3-pyridyl)-5-isopropyl-7-methyl-N-[(2-methyloxazol-4-yl)methyl]imidazo[1,5-b]pyridazin-4-amine], the concentration for half-maximal inhibition (IC50) against PDE1A is 30 nM; on PDE1B (read-out: PDE1B, IC50) it was 4.3 nM; at PDE1C, 29 nM.
On to `CCOc1ncccc1-c1cc(NCc2ncn(C)n2)c2c(C(C)C)nn(C)c2n1` [Example 4, 6-(2-ethoxy-3-pyridyl)-3-isopropyl-1-methyl-N-[(1-methyl-1,2,4-triazol-3-yl)methyl]pyrazolo[3,4-b]pyridin-4-amine], for which the concentration for half-maximal inhibition (IC50) on PDE1A amounted to 11 nM; on PDE1B (read-out: PDE1B, IC50), 0.34 nM; at PDE1C, 13 nM.
In the case of `Cc1coc(-c2cc(NCc3ncn(C)n3)c3c(C(C)C)nn(C)c3n2)n1` [Example 59, 3-isopropyl-1-methyl-N-((1-methyl-1H-1,2,4-triazol-3-yl)methyl)-6-(4-methyloxazol-2-yl)-1H-pyrazolo[3,4-b]pyridin-4-amine], the half-inhibitory concentration (IC50) against PDE1A stood at 99 nM; on PDE1B (PDE1B, IC50 (nM)), 14 nM; on PDE1C it was 67 nM.
Consider `CCOc1ncccc1-c1cc(NCc2ncn(C)n2)c2c(C(C)CC)nc(C)n2n1` (single isomer, unassigned; (+)) [Example 50, (+)-2-(2-ethoxy-3-pyridyl)-7-methyl-N-[(1-methyl-1,2,4-triazol-3-yl)methyl]-5-[1-methylpropyl]imidazo[1,5-b]pyridazin-4-amine], for which the half-inhibitory concentration (IC50) at PDE1A worked out at 5.6 nM; on PDE1B (read-out: PDE1B, IC50) it was 0.53 nM; against PDE1C, 2.4 nM.
Consider `CCOc1ncccc1-c1cc(NCc2cccc3cncn23)c2c(C(C)C)nc(C)n2n1` [Example 78, 2-(2-ethoxy-3-pyridyl)-N-(imidazo[1,5-a]pyridin-5-ylmethyl)-5-isopropyl-7-methyl-imidazo[1,5-b]pyridazin-4-amine], for which the half-maximal inhibitory concentration (IC50) on PDE1A amounted to 61 nM; at PDE1B (read-out: PDE1B, IC50) it was 5.5 nM; at PDE1C, 39 nM.
Regarding `CCOc1ncccc1-c1cc(NCc2ccn(C)n2)c2c(C(C)C)nn(C)c2n1` [Example 21, 6-(2-ethoxy-3-pyridyl)-3-isopropyl-1-methyl-N-[(1-methylpyrazol-3-yl)methyl]pyrazolo[3,4-b]pyridin-4-amine], the IC50 on PDE1A was 30 nM; at PDE1B (read-out: PDE1B, IC50), 5.3 nM; against PDE1C it was 36 nM.
As for `CCOc1ncccc1-c1cc(NCc2cnn(C)c2)c2c(C(C)CC)nc(C)n2n1` (single isomer, unassigned; (-)) [Example 47, (−)-2-(2-ethoxy-3-pyridyl)-7-methyl-N-[(1-methylpyrazol-4-yl)methyl]-5-[1-methylpropyl]imidazo[1,5-b]pyridazin-4-amine], the IC50 on PDE1A was found to be 44 nM; on PDE1B (read-out: PDE1B, IC50) it was 7.5 nM; against PDE1C, 32 nM.
With `CC(C)c1nn(C)c2nc(-c3cccs3)cc(NCc3ncn(C)n3)c12` [Example 65, 3-isopropyl-1-methyl-N-[(1-methyl-1,2,4-triazol-3-yl)methyl]-6-(2-thienyl)pyrazolo[3,4-b]pyridin-4-amine], the IC50 against PDE1A stood at 31 nM; at PDE1B (read-out: PDE1B, IC50) it was 5.1 nM; against PDE1C, 46 nM.
Regarding `CCOc1ncccc1-c1cc(NCc2cccnc2C(F)(F)F)c2c(C(C)C)nc(C)n2n1` [Example 80, 2-(2-ethoxy-3-pyridyl)-5-isopropyl-7-methyl-N-[[2-(trifluoromethyl)-3-pyridyl]methyl]imidazo[1,5-b]pyridazin-4-amine], the IC50 against PDE1A worked out at 74 nM; at PDE1B (read-out: PDE1B, IC50), 15 nM; at PDE1C, 72 nM.
